From patent US5382586A, “Aryl (or heteroaryl)piperazinylalkylazole derivatives, their preparation and their application as medicaments” (priority 1991, dated 1995)

Legend:
[1] = tested on: conditioned avoidance response in male Wistar rats; experiment: conditioned avoidance response test (inhibition of the conditioned avoidance response; anxiolytic/tranquillising activity); assay type: in vivo, rat (male Wistar); settings: rat; for Activity % (inhibition of the conditioned avoidance response): D = 80 mg/kg, p.o., 45 min before test; for ED50: po, 0.75 h
Procedure: Male Wistar rats weighing 200 grammes which have been trained to jump over a barrier in an avoidance and escape cage (shuttle box) (Letica, reference LI 910 and LI 2700) within 30 seconds of their being introduced into the cage are used in this test.
The products having an anxiolytic or tranquillising activity suppress the conditioned avoidance response.
Training: day one: 11 trials at 3 minute intervals. Electric shock to the paws after 30 seconds (5 mA, 0.1 s, 10 s).
Days two and three: 2 trials per day, with the selected rats only [sum of the scores for the first day (with the exception of the first trial)>14].
Test day: groups formed by selected rats. Oral administration of the product or the vehicle 45 minutes before the start of the study.

[2] = tested on: norepinephrine-induced death in rats; experiment: norepinephrine antagonism test in rats (antihypertensive activity); assay type: in vivo, rat (male Wister); settings: for Activity % (norepinephrine antagonistic antihypertensive activity): D = 40 mg/kg, i.p., rat, norepinephrine 1.25 mg/kg i.v. after 2 hours; for ED50: Rattus norvegicus, ip, 2 h, read-out: ED50 (norepinephrine antagonistic antihypertensive activity)
Procedure: This activity is manifested by the protection of animals before death induced by an intravenous injection of norepinephrine, which produces a hypertensive attack in rats.
Male Wister rats weighing 200 grammes are used in this test. The product to be studied is administered intraperitoneally and 1.25 mg/kg (i.v.) of norepinephrine are administered after 2 hours.
The initial administration dose in these studies is 40 mg/kg (i.p.).

| SMILES | Activity % (inhibition of the conditioned avoidance response) [1] [%] | ED50 [1] [mg/kg] | Activity % (norepinephrine antagonistic antihypertensive activity) [2] [%] | ED50 [2] [mg/kg] |
| --- | --- | --- | --- | --- |
| c1cnc(N2CCN(CCCCn3cnc4ncccc43)CC2)nc1 [Example 18, 1-{4-[4-(2-pyrimidinyl)-1-piperazinyl]-butyl}-1H-imidazo[4,5-b]pyridine] | 91 | 25.6 | 100 | 3.97 |
| COc1ccc(N2CCN(CCCCn3cc(Cl)cn3)CC2)cc1 [Example 27] | 88 |  | 0 |  |
| c1ccc(N2CCN(CCCCn3cccc3)CC2)cc1 [Example 34] | 96 | 23.7 | 100 | 10 |
| c1ccc(-c2c(-c3ccccc3)n(CCCCN3CCN(c4ncccn4)CC3)c3ccccc23)cc1 [Example 4] | 30 |  | 0 |  |
| c1ccc(-c2nccn2CCCCN2CCN(c3ncccn3)CC2)cc1 [Example 13] | 70 | 17.1 | 0 |  |
| COc1ccc(N2CCN(CCCCn3cccc3)CC2)cc1 [Example 32] | 83 | 50 | 0 |  |
| c1cnc(N2CCN(CCCCn3ccc4ccccc43)CC2)nc1 [Example 3] | 74 | 42.8 | 25 |  |
| NC(=O)c1cnn(CCCCN2CCN(c3ncccn3)CC2)c1 [Example 5, 4-carboxamido-1-{4-[4-(2-pyrimidinyl)-1-piperazinyl]-butyl}-1H-pyrazole] | 68 | 33.5 | 0 |  |
| COC(=O)c1cn(CCCCN2CCN(c3ncccn3)CC2)cn1 [Example 14] | 38 |  | 0 |  |
| COc1ccccc1N1CCN(CCCNc2cc(C)nn2C)CC1 [Example 45, 1,3-dimethyl-5-{3-[4-(2-methoxyphenyl)-1-piperazinyl]-propylamino}-1H-pyrazole] | 100 |  | 100 | 2.8 |
| Cc1nc(-c2ccccc2)c(-c2ccccc2)n1CCCCN1CCN(c2ncccn2)CC1 [Example 10] | 38 |  | 0 |  |
| c1cnc(N2CCN(CCCCn3nc4ccccc4n3)CC2)nc1 [Example 24] | 87 |  | 50 |  |
| Clc1ccc2ncn(CCCCN3CCN(c4ncccn4)CC3)c2c1 [Example 22] | 100 | 9.1 | 0 |  |
| COc1ccccc1N1CCN(CCCCn2cccc2)CC1 [Example 33] | 99 | 23.9 | 100 | 2.23 |
| c1cnc(N2CCN(CCCCn3cncn3)CC2)nc1 [Example 23] | 100 | 6.3 | 50 |  |
| Cc1cc(C(F)(F)F)n(CCCCN2CCN(c3ncccn3)CC2)n1 [Example 7] | 74 | 29 | 0 |  |
| COc1ccccc1N1CCN(CCn2cc(Cl)cn2)CC1 [Example 41] | 52 |  | 75 | 5 |
| Clc1cnn(CCCCN2CCN(c3nsc4ccccc34)CC2)c1 [Example 43] | 100 |  | 66 |  |

| SMILES | Activity % (inhibition of the conditioned avoidance response) [1] [%] | ED50 [1] [mg/kg] | Activity % (norepinephrine antagonistic antihypertensive activity) [2] [%] | ED50 [2] [mg/kg] |
| --- | --- | --- | --- | --- |
| O=C(O)c1cnn(CCCCN2CCN(c3ncccn3)CC2)c1 [Example 6, 4-carboxy-1-{4-[4-(2-pyrimidinyl)-1-piperazinyl]-butyl}-1H-pyrazole] | 57 | 44.3 | 75 | 31.7 |
| Clc1cccc(N2CCN(CCCCn3cc(Cl)cn3)CC2)c1 [Example 39] | 100 |  | 0 |  |
| c1ccc(-c2cn(CCCCN3CCN(c4ncccn4)CC3)cn2)cc1 [Example 15] | 73 | 28 | 0 |  |
| c1cnc(N2CCN(CCCCn3cnc4cccnc43)CC2)nc1 [Example 17, 1-{4-[-4-(2-pyrimidinyl)-1-piperazinyl]-butyl}-3H-imidazo[5,4-b]pyridine] | 86 | 21.9 | 0 |  |
| Clc1nc2ccccc2n1CCCCN1CCN(c2ncccn2)CC1 [Example 20] | 77 | 15.4 | 0 |  |
| Clc1cnn(CCCCN2CCN(c3ccccc3)CC2)c1 [Example 35, 4-chloro-1-[4-(4-phenyl-1-piperazinyl)-butyl]-1H-pyrazole] | 100 | 20.7 | 100 | 4.1 |
| COc1ccc(N2CCN(CCCCn3c(C)nc(Cl)c3Cl)CC2)cc1 [Example 28] | 75 | 37.5 | 100 | 14 |
| c1cnc(N2CCN(CCCCn3nnc4ccccc43)CC2)nc1 [Example 19] | 99 |  | 0 |  |
| c1cnc(N2CCN(CCCCn3cccc3)CC2)nc1 [Example 1, 1-{4-[4-(2-pyrimidinyl)-1-piperazinyl]-butyl}pyrrole] | 94 | 32.4 | 0 |  |
| CCc1nccn1CCCCN1CCN(c2ncccn2)CC1 [Example 12] | 46 |  | 0 |  |
| COc1cccc(N2CCN(CCCCn3cc(Cl)cn3)CC2)c1 [Example 31] | 100 | 20.8 | 0 | 8.9 |
| COc1ccccc1N1CCN(CCCCn2cc(Cl)cn2)CC1 [Example 29] | 100 | 8.9 | 100 | 0.46 |
| Cn1ccnc1N1CCN(CCCCn2cccn2)CC1 [Example 40] | 28 |  | 0 |  |
| c1cnc(N2CCN(CCCCn3c4ccccc4c4ccccc43)CC2)nc1 [Example 2] | 37 |  | 0 |  |
| Clc1cnn(CCCCN2CCN(c3ccccc3Cl)CC2)c1 [Example 37] | 86 | 29.5 | 100 | 1.9 |
| Cc1cc2ncn(CCCCN3CCN(c4ncccn4)CC3)c2cc1C [Example 26] | 88 | 34.5 | 0 |  |
| Cc1nc(Cl)c(Cl)n1CCCCN1CCN(c2nsc3ccccc23)CC1 [Example 44] | 95 |  | 100 |  |
